Measured values taken from patent US8609347B2, “Biomarkers for prenatal diagnosis of congenital cytomegalovirus” (priority 2007, dated 2013).

How the values were obtained:
Assay type in all cases: cell-based, human
[1] = system: integrin β6; test: Surface expression of integrin αvβ6 by flow cytometry in CMV-infected HUVECs; settings: 7 days, SB431542 0.1 to 1 μmol/L, Foscarnet 400 μmol/L, phosphonoacetic acid 100 μg/ml
Method: FIG. 20: Induction of integrin αvβ6 expression requires TGF-β signaling and viral DNA replication A: Infected HUVECs were cultured with or without chicken anti-TGF-β polyclonal antibody (20 μg/ml), chicken IgY isotype control antibody (control Ab, 20 μg/ml), the ALK5 kinase inhibitor SB431542 (0.5 μmol/L), or the vehicle DMSO for 7 days, and surface expression of integrin αvβ6 was analyzed by flow cytometric analysis. Typical histograms are shown. Shaded areas represent expression of specific proteins. Lines represent isotype control. Experiments were repeated at least two times. B: Surface expression of integrin αvβ6 was analyzed by flow cytometric analysis at 7 days after infection with or without viral DNA polymerase inhibitors, Foscarnet, and phosphonoacetic acid (PAA). Typical histograms are shown. Shaded areas represent expression of specific proteins. Lines represent isotype control. Experiments were repeated six times. C: Active TGF-β was not produced by infected HUVECs in the presence of viral DNA polymerase inhibitors. Equal numbers of TMLC TGF-β reporter cells and control (cont.) or infected HUVECs were cultured for 16 to 24 hours at 7 days after infection. Relative luciferase activity in cell lysates was defined as the measured activity divided by TMLC baseline activity. Representative data (mean±SE) are from four experiments done in triplicate.
The present example assesses how integrin β6 is induced on CMV infection in HUVECs. It has been reported that TGF-β1 induces de novo synthesis of integrin β6 in normal human keratinocytes (Zambruno et al., J Cell Biol, 129:853-865 (1995)) and strongly up-regulates its expression in primary cultures of human airway epithelial cells (Wang et al., Am J Respir Cell Mol Biol, 15:664-672 (1996)). […] HUVECs were cultured with the filtered conditioned medium for 8 days, and expression of integrin β6 was analyzed. […] It was then determined whether viral late gene expression is required for the up-regulation of integrin β6 in infected cells because the expression was observed only at late times after infection. […]

[2] = system: TGF-β1 activation in CMV-infected HUVECs; test: TGF-β bioassay: TMLC TGF-β reporter cells co-cultured with CMV-infected HUVECs, luciferase activity; settings: 7 days after infection; Foscarnet 400 μmol/L or phosphonoacetic acid 100 μg/ml
Text: FIG. 18: Integrin αvβ6-dependent TGF-β1 activation in CMV-infected HUVECs. A: TGF-β1 production by infected HUVECs. Conditioned medium was collected from control (open circles) and infected (filled circles) HUVECs at 1 to 9 days, and TGF-β1 was quantified by enzyme-linked immunosorbent assay. Results are the mean (±SE) of three experiments done in duplicate. Asterisks indicate the amount of TGF-β1 in infected HUVECs as compared with uninfected controls (*P<0.05, **P<0.01). B: Surface expression of TGF-β1 in HUVECs was analyzed by flow cytometry at 3, 7, and 10 days after infection and controls (cont). Typical histograms are shown. Shaded areas represent expression of specific proteins. Lines represent isotype control. Experiments were repeated at least three times. C: Total TGF-β1 was analyzed by flow cytometry using permeabilized cells at 3, 7, and 10 days after infection (inf.) and controls (cont). Left: Typical histograms at 10 days are shown. Shaded areas represent expression of specific proteins. Lines represent isotype control. Right: Results are the mean fluorescence intensity (±SE) of three experiments. Asterisks indicate expression in infected HUVECs as compared with uninfected controls (*P<0.05). D: TGF-β bioassay of active TGF-β produced by infected HUVECs. […] Relative luciferase activity in cell lysates was defined as the measured activity divided by TMLC baseline activity. […]

[3] = system: CEACAM1; test: CEACAM1 expression by flow cytometry in HUVEC; settings: treatment with antioxidants; ratios of mean fluorescence intensity to control cells
Text: FIG. 6A-D: CEACAM protein increases in CMV-infected HUVEC. (A) (Left panel) Flow cytometric analysis of CEACAM1 surface expression. Typical histograms from control and infected human umbilical vein endothelial cells (HUVEC) are shown. Shaded areas represent expression of specific proteins, and lines represent isotype control. (Middle panel) Graphs represent mean fluorescence intensity (mean±SE). Statistically significant differences are indicated (*p<0.05, **p<0.001). (Right panel) VR1814-infected HUVEC increase intracellular CEACAM1 protein. Permeabilized cells were analyzed by flow cytometry. Shaded areas represent expression of specific proteins; lines represent isotype control. (B) CEACAM1 levels in conditioned medium measured by ELISA. Polyclonal and biotinylated CEACAM1-specific IgG (R&D Systems) were used for coating and detection, respectively. CEACAM1 was quantified with peroxidase-conjugated streptavidin. CEACAM1 concentration increased in conditioned medium from infected HUVEC (1 PFU/cell). Graphs represent mean value±SE (n=4). Statistically significant differences are indicated (*p<0.05). (C) Infected HUVEC and controls were immunostained for CEACAM1 and CMV gB. Please Note: cells without viral proteins express CEACAM1. […] Ratios of the mean fluorescence intensity were obtained with control cells.

[4] = system: fibronectin; test: Surface expression of fibronectin in CMV-infected HUVECs; settings: late times after infection
Text: TGF-β1 is a potent fibrotic factor responsible for the synthesis of ECM, and profibrotic TGF-β1 responses are induced primarily via ALK5/Smad3 signal transduction in normal fibroblasts (Ishida et al., J Invest Dermatol, 126:1733-1744 (2006)). TGF-β1 also potently promotes the synthesis and deposition of ECM in endothelial cells (Pepper, M. S., Cytokine Growth Factor Rev, 8:21-43 (1997)). […] Therefore, it was investigated in the present example whether CMV-activated TGF-β1 could increase ECM production and whether blocking TGF-β1 activation could prevent the effect. […] To evaluate the effect of inhibition of activation of TGF-β1 on CMV-induced profibrotic response, infected cells were treated with anti-TGF-β (1D11) and anti-αvβ6 (3G9) antibodies for 7 days. […] In addition, surface expression of fibronectin was increased at late times after infection, and was reduced by the ALK5 kinase inhibitor.

[5] = system: type IV collagen; test: Type IV collagen expression (flow cytometry, immunoblot) in CMV-infected HUVECs; settings: infected HUVECs treated for 7 days
Method: FIG. 22: Increased type IV collagen synthesis by CMV infection was blocked by anti-TGF-β and anti-αvβ6 neutralizing antibodies. A: Surface expression of type IV collagen was analyzed by flow cytometric analysis at 10 days after infection. Typical histograms from control (cont.) and infected (inf.) HUVECs are shown. Shaded areas represent expression of specific proteins. Lines represent isotype control. B: The results represent the mean fluorescence intensity of type IV collagen (mean±SE) from three to seven experiments. Asterisks indicate surface expression in infected HUVECs as compared with uninfected controls (*P<0.01). C: Cell lysates from control (cont.) or infected (inf.) HUVECs at 3, 7, and 10 days after infection were fractionated by 8% SDS-PAGE and blotted on nitrocellulose. Filters were incubated with anti-type IV collagen (Col IV) and anti-actin (loading control) antibodies. D: Surface expression of type IV collagen was analyzed by flow cytometric analysis at 7 days without antibody (untreated) or with anti-TGF-β neutralizing antibody (1D11), function-blocking anti-αvβ6 antibody (3G9), or mouse IgG1 isotype control antibody (control Ab). Relative surface expression as expressed by mean fluorescence intensity was normalized for control HUVECs in the same experiment. Results are the mean (±SE) from three experiments. […]

[6] = system: Smad3 phosphorylation; test: Smad3 phosphorylation by immunoblot in CMV-infected HUVECs; settings: 8-day infected HUVECs; 1D11 40 μg/ml, 3G9 80 μg/ml, SB431542 2.5 μmol/L
Method: FIG. 19: CMV-infected HUVECs induce Smad3 phosphorylation. Cell lysates from control (cont.) or infected (inf.) HUVECs at 3, 7, and 10 days after infection were fractionated by 10% SDS-PAGE and blotted on nitrocellulose. Phosphorylation of Smad3 (pSmad3) and Smad1/5 (pSmad1/5) was analyzed by immunoblotting using phospho-specific Smad3 and Smad1/5/8 (pSmad1/5) antibodies. Equal loading of the gels was confirmed using Smad2/3, Smad1, and Smad5 protein levels. B: Effects of anti-TGF-β antibody, anti-αvβ6 antibody (3G9), and ALK5 kinase inhibitor on Smad3 phosphorylation. […]
Activated TGF-β1 can bind the type I receptors ALK1 and ALK5, which then phosphorylate the transcriptional activators Smad1/5 and Smad2/3, respectively (ten Dijke, P. and Hill, C. S., Trends Biochem Sci, 29:265-273 (2004)). To determine which of these TGF-β1 signaling pathways is activated in CMV-infected HUVECs, Smad1/5 and Smad3 phosphorylation was analyzed by immunoblotting with antibodies specific to Smads and their phosphorylated forms (FIG. 19A). Smad3 phosphorylation was strongly detected in 7- and 10-day-infected cells. […] Phosphorylated Smad1/5 was also weakly detected in the control. […]

Compound	induction of integrin β6 [1]	induction of TMLC luciferase activity (active TGF-β) [2]	CEACAM1 expression [3]	also measured
O=C(O)CP(=O)(O)O [phosphonoacetic acid]	blocked induction of integrin β6	strongly suppressed	–	–
OCCS [β-mercaptoethanol]	–	–	reduce CEACAM1 expression	–
O[C@H](CS)[C@H](O)CS (racemic) [DTT, dithiothreitol]	–	–	reduce CEACAM1 expression	–
O=C(O)P(=O)(O)O [Foscarnet]	blocked induction of integrin β6	strongly suppressed	–	–
C[S+](C)[O-] [DMSO, dimethyl sulfoxide]	–	–	reduce CEACAM1 expression	–
NC(=O)c1ccc(-c2nc(-c3ccc4c(c3)OCO4)c(-c3ccccn3)[nH]2)cc1 [SB431542]	nearly abolish it at high concentrations	–	–	surface expression of fibronectin [4]: reduced; surface expression of type IV collagen [5]: inhibitory effect; Smad3 phosphorylation [6]: prevented Smad3 phosphorylation
